Test results taken from ChEMBL document CHEMBL4699646, “Eleutheroside E Enhances the Long-Term Memory of Radiation-Damaged C. elegans through G-Protein-Coupled Receptor and Neuropeptide Signaling Pathways” (J Nat Prod, 2020).
Active and inactive are the calls of the source. The calls are words filed in the database; no cut-off is given here.

How the values were obtained:
[1] = test system: Caenorhabditis elegans; test: Inhibition of neuropeptide pathway in radioactive-induced Caenorhabditis elegans N2 assessed as down regulation of npr-2 mRNA expression preincubated for 24 hrs followed by gamma-radiation treatment and measured after 24 hrs qRT-PCR analysis; settings: time 48.0 hrs
[2] = test system: Caenorhabditis elegans; test: Memory enhancement effect in radioactive-induced Caenorhabditis elegans RB1341 harboring […] mutant assessed as memory index preincubated for 24 hrs followed by gamma-radiation treatment and measured after 24 hrs; type: functional, organism-based; settings: time 48.0 hrs
[3] = test system: Caenorhabditis elegans; test: Protective activity against Butanone-induced Caenorhabditis elegans N2 assessed as chemotaxis index incubated for 1 hr; type: functional, organism-based
[4] = test system: Caenorhabditis elegans; test: Protective activity against radioactive-induced Caenorhabditis elegans N2 at 0.05 to 0.2 mg/ml preincubated for 24 hrs followed by gamma-radiation treatment and measured after 24 hrs; type: functional, organism-based; settings: dose mg/ml 0.05-0.2, time 48.0 hrs
[5] = test system: Caenorhabditis elegans; test: Inhibition of cGMP signaling pathway in radioactive-induced Caenorhabditis elegans N2 assessed as down regulation of tax-4 mRNA expression preincubated for 24 hrs followed by gamma-radiation treatment and measured after 24 hrs qRT-PCR analysis; settings: time 48.0 hrs
[6] = test system: Caenorhabditis elegans; test: Memory enhancement effect in radioactive-induced Caenorhabditis elegans harboring RNAi podr-1::unc-31 mutant assessed as memory index preincubated for 24 hrs followed by gamma-radiation treatment and measured after 24 hrs; type: functional, organism-based; settings: time 48.0 hrs
[7] = test system: Caenorhabditis elegans; test: Inhibition of Gq-alpha-coupled PLC pathway in radioactive-induced Caenorhabditis elegans N2 assessed as down regulation of egl-8 mRNA expression preincubated for 24 hrs followed by gamma-radiation treatment and measured after 24 hrs qRT-PCR analysis; settings: time 48.0 hrs
[8] = test system: Caenorhabditis elegans; test: Inhibition of Gq-alpha-coupled PLC pathway in radioactive-induced Caenorhabditis elegans N2 assessed as down regulation of egl-30 mRNA expression preincubated for 24 hrs followed by gamma-radiation treatment and measured after 24 hrs qRT-PCR analysis; settings: time 48.0 hrs
[9] = test system: Caenorhabditis elegans; test: Inhibition of cGMP signaling pathway in radioactive-induced Caenorhabditis elegans N2 assessed as down regulation of odr-1 mRNA expression preincubated for 24 hrs followed by gamma-radiation treatment and measured after 24 hrs qRT-PCR analysis; settings: time 48.0 hrs
[10] = test system: Caenorhabditis elegans; test: Memory enhancement effect in radioactive-induced Caenorhabditis elegans MT1434 harboring egl-30(n686) mutant assessed as memory index preincubated for 24 hrs followed by gamma-radiation treatment and measured after 24 hrs; type: functional, organism-based; settings: time 48.0 hrs
[11] = test system: Caenorhabditis elegans; test: Inhibition of neuropeptide signaling pathway in radioactive-induced Caenorhabditis elegans N2 assessed as down regulation of npr-11 mRNA expression preincubated for 24 hrs followed by gamma-radiation treatment and measured after 24 hrs qRT-PCR analysis; settings: time 48.0 hrs
[12] = test system: Caenorhabditis elegans; test: Inhibition of neuropeptide pathway in radioactive-induced Caenorhabditis elegans N2 assessed as down regulation of nlp-5 mRNA expression preincubated for 24 hrs followed by gamma-radiation treatment and measured after 24 hrs qRT-PCR analysis; settings: time 48.0 hrs
[13] = test system: Caenorhabditis elegans; test: Memory enhancement effect in radioactive-induced Caenorhabditis elegans MY66 harboring egl-30(n686);Podr-1-mcherry::egl-30(mtIs35)] mutant assessed as memory index preincubated for 24 hrs followed by gamma-radiation treatment and measured after 24 hrs; type: functional, organism-based; settings: time 48.0 hrs
[14] = test system: Caenorhabditis elegans; test: Memory enhancement effect in radioactive-induced Caenorhabditis elegans assessed as increase in cAMP level preincubated for 24 hrs followed by gamma-radiation treatment and measured after 24 hrs; type: functional, organism-based; settings: time 48.0 hrs
[15] = test system: Caenorhabditis elegans; test: Inhibition of neuropeptide pathway in radioactive-induced Caenorhabditis elegans N2 assessed as down regulation of nlp-1 mRNA expression preincubated for 24 hrs followed by gamma-radiation treatment and measured after 24 hrs qRT-PCR analysis; settings: time 48.0 hrs
[16] = test system: Caenorhabditis elegans; test: Protective activity against radioactive-induced Caenorhabditis elegans N2 assessed as body bends preincubated for 24 hrs followed by gamma-radiation treatment and measured after 24 hrs; type: functional, organism-based; settings: time 48.0 hrs
[17] = test system: Caenorhabditis elegans; test: Inhibition of Gq-alpha-coupled PLC pathway in radioactive-induced Caenorhabditis elegans N2 assessed as up regulation of goa-1 mRNA expression preincubated for 24 hrs followed by gamma-radiation treatment and measured after 24 hrs qRT-PCR analysis; settings: time 48.0 hrs
[18] = test system: Caenorhabditis elegans; test: Inhibition of cGMP signaling pathway in radioactive-induced Caenorhabditis elegans N2 assessed as down regulation of tax-2 mRNA expression preincubated for 24 hrs followed by gamma-radiation treatment and measured after 24 hrs qRT-PCR analysis; settings: time 48.0 hrs
[19] = test system: Caenorhabditis elegans; test: Protective activity against radioactive-induced Caenorhabditis elegans N2 assessed as head thrashes preincubated for 24 hrs followed by gamma-radiation treatment and measured after 24 hrs; type: functional, organism-based; settings: time 48.0 hrs
[20] = test system: Caenorhabditis elegans; test: Inhibition of Gs-apha-coupled PKA pathway in radioactive-induced Caenorhabditis elegans N2 assessed as down regulation of kin-2 mRNA expression preincubated for 24 hrs followed by gamma-radiation treatment and measured after 24 hrs qRT-PCR analysis; settings: time 48.0 hrs
[21] = test system: Caenorhabditis elegans; test: Activation of CREB in radioactive-induced Caenorhabditis elegans YT17 harboring crh-1(tz2) mutant assessed as increase in long-term memory preincubated for 24 hrs followed by gamma-radiation treatment and measured after 24 hrs; settings: time 48.0 hrs
[22] = test system: Caenorhabditis elegans; test: Activation of CREB in radioactive-induced Caenorhabditis elegans MY36 harboring [crh-1(tz2); Pmbr-1-mcherry::crh-1(mtIs18)] mutant assessed as increase in long-term memory preincubated for 24 hrs followed by gamma-radiation treatment and measured after 24 hrs; settings: filed as activator, time 48.0 hrs
[23] = test system: Caenorhabditis elegans; test: Memory enhancement effect in radioactive-induced Caenorhabditis elegans harboring RNAi egl8;egl-30(n686)ls(Podr-1-mcherry::egl-30) mutant assessed as memory index preincubated for 24 hrs followed by gamma-radiation treatment and measured after 24 hrs; type: functional, organism-based; settings: time 48.0 hrs
[24] = test system: Caenorhabditis elegans; test: Inhibition of cGMP signaling pathway in radioactive-induced Caenorhabditis elegans N2 assessed as down regulation of daf-11 mRNA expression preincubated for 24 hrs followed by gamma-radiation treatment and measured after 24 hrs qRT-PCR analysis; settings: time 48.0 hrs
[25] = test system: Caenorhabditis elegans; test: Inhibition of Gs-apha-coupled PKA pathway in radioactive-induced Caenorhabditis elegans N2 assessed as down regulation of gsa-1 mRNA expression preincubated for 24 hrs followed by gamma-radiation treatment and measured after 24 hrs qRT-PCR analysis; settings: time 48.0 hrs
[26] = test system: Caenorhabditis elegans; test: Activation of CREB in radioactive-induced Caenorhabditis elegans YT17 harboring crh-1(tz2) mutant assessed as reduction radiation-induced damage preincubated for 24 hrs followed by gamma-radiation treatment and measured after 24 hrs; settings: time 48.0 hrs
[27] = test system: Caenorhabditis elegans; test: Inhibition of neuropeptide pathway in radioactive-induced Caenorhabditis elegans N2 assessed as down regulation of nlp-23 mRNA expression preincubated for 24 hrs followed by gamma-radiation treatment and measured after 24 hrs qRT-PCR analysis; settings: time 48.0 hrs
[28] = test system: Caenorhabditis elegans; test: Memory enhancement effect in Caenorhabditis elegans N2 assessed as increase in long-term memory index at 0.1 mg/ml preincubated for 24 hrs followed by gamma-radiation treatment and measured after 24 hrs; type: functional, organism-based; settings: time 48.0 hrs

COc1cc([C@H]2OC[C@@H]3[C@@H]2CO[C@H]3c2cc(OC)c(O[C@@H]3O[C@H](CO)[C@@H](O)[C@H](O)[C@H]3O)c(OC)c2)cc(OC)c1O[C@@H]1O[C@H](CO)[C@@H](O)[C@H](O)[C@H]1O
inhibition [1]: Active | Activity [2]: Active | Activity [3]: inactive | Activity [4]: inactive | inhibition [5]: inactive | Activity [6]: inactive | inhibition [7]: Active | inhibition [8]: Active | inhibition [9]: inactive | Activity [10]: inactive | inhibition [11]: Active | inhibition [12]: Active | Activity [13]: Active | Activity [14]: Active | inhibition [15]: Active | Activity [16]: inactive | inhibition [17]: Active | inhibition [18]: inactive | Activity [19]: inactive | inhibition [20]: Active | Activity [21]: inactive | Activity [22]: Active | Activity [23]: inactive | inhibition [24]: inactive | inhibition [25]: Active | Activity [26]: inactive | inhibition [27]: Active | Activity [28]: Active
